From patent US20210180023A1, “CARDIAC REPAIR BY REPROGRAMMING OF ADULT CARDIAC FIBROBLASTS INTO CARDIOMYOCYTES” (The Board of Regents of the University of Texas System, priority 2017, published 2021)

Test system: αMHC-GFP adult cardiac fibroblasts (CF)
Assay: Flow cytometry (FACS) of αMHC-GFP+ and cTnT+ adult cardiac fibroblasts after reprogramming
Assay type: cell-based, mouse
Details: ZNF281 added to 5F, adult CFs, 7 days
Procedure: Flow Cytometry. For flow Cytometry, cells were trypsinized and fixed with fixation buffer (BD Bioscience) for 15 min on ice. Fixed cells were washed with Perm/Wash buffer (BD Bioscience) for three times. Washed cells were incubated with mouse monoclonal anti-cardiac Troponin T (cTnT) antibody (Thermo Scientific) at 1:200 dilution and Rabbit anti-GFP antibody (Thermo Scientific) at 1:200 dilution in Perm/Wash buffer for 1 hr on ice. Cells then were washed with Perm/Wash buffer for three times followed by incubation with donkey anti-mouse Alexa fluor 647 (Invitrogen) at 1:200 and goat anti-rabbit Alexa fluor 488 at 1:200 (Invitrogen). Cells were washed with Perm/Wash buffer, and then analyzed using FACS Caliber (BD Sciences) and FlowJo software.
ZNF281 enhances cardiac reprogramming of adult fibroblasts. PHF7 and ZNF281 were the two strongest activators identified from retroviral cDNA expression screen with 5F (FIG. 1D; Table S2). PHF7 is only expressed in the male germ line (Yang et al., 2012), whereas ZNF281 has a broad expression pattern with enriched expression in the heart (FIG. 51). The inventors therefore focused their initial attention on ZNF281 and explored its ability to enhance the activity of 5F. They refer to the reprogramming mix of 5F plus ZNF281 as 6F. The inventors validated the results of their screen by assessing GFP and cTnT expression in αMHC-GFP TTFs following 5F and 6F reprogramming after 7 days (FIG. 3A). […] This TTF reprogramming efficiency using 6F is noteworthy when considering the relatively low statistical likelihood of each fibroblast taking up all five or six separate retroviruses encoding the reprogramming factors. The inventors also examined the expression of cardiac and fibroblast transcripts by q-PCR. […] The addition of ZNF281 to 5F increased the expression of GFP and cTnT in αMHC-GFP CFs evaluated by immunocytochemistry after 7 days of reprogramming (FIG. 10A). […]

**Q.** Which “cTnT+ iCMs” value does the source give for Zinc finger protein 281 [ZNF281] here?
**A.** ~45%

**Q.** And the “αMHC-GFP+ iCMs” value?
**A.** ~25%

**Q.** What about the “αMHC-GFP+/cTnT+ iCMs” value of the same substance?
**A.** ~21%
